How the values were obtained:
Assay in all cases: Assay for Inhibition of Compounds Provided in the Present Application on CYP Enzymes
Cytochrome P450 2C9 = Cytochrome P450 2C9 (Homo sapiens, UniProt P11712)
Procedure: (§1) Typical substrate metabolic responses of five major human CYP subtypes (CYP1A2, CYP2C9, CYP2C19, CYP2D6, CYP3A4) were evaluated using 150-donor pooled human liver microsomes (purchased from Corning, Cat. No.: 452117). The influence of different concentrations of each compound to be tested on metabolic responses of phenacetin (CYP1A2), diclofenac sodium (CYP2C9), S-mephenytoin (CYP2C19), bufuralol hydrochloride (CYP2D6), and midazolam (CYP3A4) was determined by liquid chromatography-mass spectrometry (LC/MS/MS). The reaction system (200 μL) (100 mmol/L phosphate buffer, pH 7.4, containing DMSO, acetonitrile and methanol at a volume ratio of 0.3%:0.6%:0.1%) of 30 μM phenacetin, 10 μM diclofenac sodium, 35 μM S-mephenytoin, 5 μM bufuralol hydrochloride, 3 μM midazolam, 1 mM reduced nicotinamide adenine dinucleotide phosphate (NADPH), the compound to be tested (at concentrations of 0.1, 0.3, 1, 3, 10, 30 μmol/L, respectively), or positive compound or blank control, with pooled human liver microsomes (0.2 mg/mL) was incubated at 37° C. for 5 min. Then 200 μL of acetonitrile solution containing 3% formic acid and 40 nM internal standard verapamil was added and centrifuged at 4000 rpm for 50 min. The mixture was cooled on ice for 20 min and centrifuged at 4000 rpm for 20 min to precipitate the protein. Then 200 μL of supernatant was analyzed by LC-MS/MS.The peak area was calculated from the chromatogram.

Cytochrome P450 1A2 = target: T1, Cytochrome P450 1A2 (Homo sapiens, UniProt P05177)
T1 sequence (P05177 whole entry): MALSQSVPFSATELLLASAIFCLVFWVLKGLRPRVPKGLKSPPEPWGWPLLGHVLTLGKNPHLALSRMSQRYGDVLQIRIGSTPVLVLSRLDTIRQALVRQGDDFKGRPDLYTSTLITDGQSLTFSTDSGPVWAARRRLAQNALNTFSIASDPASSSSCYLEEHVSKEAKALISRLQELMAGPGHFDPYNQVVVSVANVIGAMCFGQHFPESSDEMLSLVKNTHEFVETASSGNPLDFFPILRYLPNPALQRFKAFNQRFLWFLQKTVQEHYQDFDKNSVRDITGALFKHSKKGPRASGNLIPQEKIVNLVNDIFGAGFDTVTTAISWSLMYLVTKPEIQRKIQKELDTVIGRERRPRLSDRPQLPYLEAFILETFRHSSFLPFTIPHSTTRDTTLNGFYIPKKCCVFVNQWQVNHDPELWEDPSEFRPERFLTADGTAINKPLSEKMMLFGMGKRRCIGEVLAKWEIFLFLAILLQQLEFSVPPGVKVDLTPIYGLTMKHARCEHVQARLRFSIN
Procedure: as §1

Cytochrome P450 2C19 = Cytochrome P450 2C19 (Homo sapiens, UniProt P33261)
Procedure: as §1

Chain of Cytochrome P450 2C19 (P33261 whole entry): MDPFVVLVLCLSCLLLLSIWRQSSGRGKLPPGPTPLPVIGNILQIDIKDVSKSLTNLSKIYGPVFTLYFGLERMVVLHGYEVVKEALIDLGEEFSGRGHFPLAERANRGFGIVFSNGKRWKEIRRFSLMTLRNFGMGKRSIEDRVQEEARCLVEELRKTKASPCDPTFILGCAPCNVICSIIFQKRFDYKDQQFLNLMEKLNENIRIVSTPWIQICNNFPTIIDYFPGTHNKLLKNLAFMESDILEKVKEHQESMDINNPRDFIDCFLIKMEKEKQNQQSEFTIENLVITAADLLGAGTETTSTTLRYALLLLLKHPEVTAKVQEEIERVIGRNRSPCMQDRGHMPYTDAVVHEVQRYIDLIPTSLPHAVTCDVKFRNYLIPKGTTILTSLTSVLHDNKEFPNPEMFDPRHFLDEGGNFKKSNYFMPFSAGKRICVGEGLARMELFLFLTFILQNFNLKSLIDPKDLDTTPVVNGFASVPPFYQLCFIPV
Chain of Cytochrome P450 2C9 (P11712 whole entry): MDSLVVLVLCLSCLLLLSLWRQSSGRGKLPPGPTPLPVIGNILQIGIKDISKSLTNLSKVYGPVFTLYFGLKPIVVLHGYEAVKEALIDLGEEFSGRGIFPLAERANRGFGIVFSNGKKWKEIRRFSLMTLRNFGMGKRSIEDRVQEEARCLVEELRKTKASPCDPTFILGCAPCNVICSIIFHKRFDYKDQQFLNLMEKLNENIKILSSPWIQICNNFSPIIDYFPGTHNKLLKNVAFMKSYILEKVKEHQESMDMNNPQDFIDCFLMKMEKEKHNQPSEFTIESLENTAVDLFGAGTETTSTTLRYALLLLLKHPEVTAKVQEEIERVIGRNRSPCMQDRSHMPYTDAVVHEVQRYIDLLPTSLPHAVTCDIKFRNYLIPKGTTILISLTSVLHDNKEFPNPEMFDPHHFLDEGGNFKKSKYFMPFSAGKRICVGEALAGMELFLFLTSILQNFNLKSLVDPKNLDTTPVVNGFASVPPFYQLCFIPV

IC50 (Cytochrome P450 2C9): 28.9 µM
IC50 (Cytochrome P450 1A2): > 30 µM
IC50 (Cytochrome P450 2C19): 17.1 µM
SMILES: COc1nccc(C2CC2)c1-c1ncc2c(n1)N(Cc1ccc(-c3nc(C(F)(F)F)cn3C)cc1)CC(=O)N2C [US20240226107, Compound 11]

Reference: BindingDB's records for patent US20240226107 (Simcere Zaiming Pharmaceutical Co., 2024)
